In patent US7304129B2 (Imperial Innovations Limited, priority 2000, dated 2007):
“And” between values parts separate entries of the source, which are not always exact repeats. Identical values can stand only once. “Also recorded” adds a separate entry of the source. No end group written: not given here.

Columns and labels:
[1] = tested on: rat cerebellar granule neurons cultured on monolayers of NIH 3T3 fibroblasts; test: in vitro neurite outgrowth co-culture assay (axon regeneration); format: cell-based; settings: for stimulation of neurite outgrowth (in words): agent included in coculture medium, 16 hour culture; for peptide concentration giving maximal effects in neurite outgrowth assay: rat cerebellar neurons on 3T3 monolayer, 16 hours
Description: An example of such an assay is a co-culture assay in which neurons are cultured on top of cellular monolayers for 16 hours, before being fixed and stained with a neuron-specific antibody. The mean length of the longest neurite per cell can then be determined by fluorescence microscopy using an appropriate image analysis programme. The neurons may be, for example, (in this case cerebellar granule cell neurons, hippocampal, dorsal root ganglion, olfactory, motor or dopaminergic neurons. The cellular monolayer is, for example NIH 3T3 fibroblasts.
Monolayers of NIH 3T3 fibroblasts were established by seeding 80,000 cells per well in Lab-Tek 8-chamber slides previously coated sequentially with poly-L-lysine and fibronectin and culturing them overnight in DMEM+10% FCS growth medium.
Cerebellum was dissected from post-natal day 2-4 rat pups and the meninges and extraneous tissue discarded. Cerebellum was chopped into small pieces and trypsinised for 10 minutes at 37° C. Trypsin was neutralised using growth medium and the cells pelletted at 1000×g for 7 minutes. Cerebellar neurons were then resuspended in SATO growth medium containing 2% FCS, counted, and plated on top of the fibroblast monolayer at a density of 1,500 neurons per well. After 16 hours, cocultures were fixed with 4% para-formaldehyde and stained with an anti-GAP43 neuron-specific antibody, which was a gift from Dr Graham Wilkin, Imperial College Department of Biochemistry, London, but any other neuron-specific marker can be used.
The mean neurite length of 150-200 neurons per well was determined using a fluorescent microscope and Zeiss KS300 imaging software.
Peptides A, A(d), B, C, D, E, and F were each incorporated in the SATO medium at a range of concentrations from 0 to 200 μg/ml. Nerve growth factor (NGF) and fibroblast growth factor (FGF2) were used as controls at the same range of concentrations.

[2] = tested on: NIH 3T3 cells; test: NIH 3T3 cell survival MTS assay in serum-free DMEM (Example 6); format: cell-based; settings: for survival of NIH3T3 cells in serum-free conditions (in words): FGF2 only at low concentrations; for survival of NIH3T3 cells: low-density cultures
Description: NIH 3T3 cells are plated in 96-well plates at a density of 5,500 cells/well in 100 μl DMEM containing 0.5% FCS. After 24 hours, this medium is aspirated from the wells and replaced with 100 μl serum-free DMEM alone, or supplemented with 0.5% FCS (positive control), or a single potential survival factor, with four identical wells set up for each condition. The cells are left for up to seven days at 37 degrees and 8% CO2 before the cell survival is determined using an MTS assay. In this assay 20 μl of MTS substrate is added to each 100 μl well and the plate left in the incubator for up to four hours. Respiring cells produce a coloured reaction product that can be read using a spectrophotometer at 490 nm. […] The mean absorbance at 490 nm+/−SEM is determined for the four identically set up wells. Wells containing a known survival factor such as insulin will contain more living cells after three days than cells cultured in unsupplemented medium.

[3] = tested on: cerebellar neurones expressing a dominant-negative form of FGF receptors; test: neurite outgrowth of cerebellar neurones from transgenic mice expressing dominant-negative FGF receptors; format: cell-based; settings: neurons unable to signal through the FGF receptor; listed as Ac-DRVEPYSSTA-amide
[4] = tested on: NIH 3T3 cells; test: NIH 3T3 survival and morphology, TRITC-conjugated phalloidin staining; format: cell-based; settings: three days
[5] = tested on: MAP kinase; test: Western blot for tyrosine phosphorylated MAP kinase in NIH 3T3 cells; format: cell-based; settings: 10 minutes
Description: A Western blot (FIG. 2f) was obtained as follows: one million NIH 3T3 cells were serum starved for 24 hours then challenged with the following agents: DMEM, 10% FCS, 0.1 ng/ml FGF2, 1 ng/ml FGF2, 10 ng/ml FGF2, 5 μg/ml insulin, 400 μg/ml peptide 52 for 10 minutes at 37 degrees Celsius before being lysed in sample buffer and band separated by PAGE. Proteins were transferred to PVDF membranes and probed with an antibody that recognises tyrosine phosphorylated MAP kinse (upper panel).

[6] = tested on: NIH3T3 cells; test: cell survival/proliferation at two plating densities
Text: FGF2 is a mitogen for a range of cells, including NIH3T3 cells.

[7] = tested on: NIH 3T3 fibroblasts; test: survival of 3T3 fibroblasts in serum-free DMEM (MTS and morphologic method, Example 5a); format: cell-based; settings: in the presence of FGF
Description: NIH 3T3 fibroblasts were plated in each well of a 96-well microtitre plate at a density of 7,000 cells per well in DMEM containing 3% FCS and left to attach overnight. The following day the growth medium was removed and replaced with 0.1 ml DMEM supplemented with FGF or Peptide A(d) or both, eight wells for each condition. The negative control was DMEM alone (maximal cell death) and the positive control was supplementation with 0.5% FCS (maximal cell survival).
Six days later (seven days from first plating the cells), the relative number of living cells in each well was assessed by adding the mitochondrial substrate MTS, [3-(4,5-dmethylthiazol-2-yl)-5-(3-carboxymethoxyphenyl)-2-(4-sulphophenyl)-2H-tetrazolium, inner salt), for four hours before reading the optical density on a microtitre plate reader at a wavelength of 490 nm. The optical density gives a measure of the number of respiring cells present in each well at the end of the assay period.
In addition to the biochemical assay, survival was assessed qualitatively using a morphologic method in which cells were plated in 8-chamber Lab Tek slides in DbEM alone (negative control), or DMEM supplemented with 0.5 ng/ml FGF2; 0.5% FCS (positive control), or 25-200 μg/ml Peptide A(d). After three days the cells were fixed with 4% paraformaldehyde, permeablised with methanol and stained with TRITC-conjugated falloidin to visualise the cell cytoskeleton.

[8] = tested on: cells in S phase (bromodeoxyuridine incorporation into DNA); test: bromodeoxyuridine incorporation (entry into S phase) mitogenicity assay; format: cell-based; settings: six hours
Description: The mitogenicity of an agent can be determined by testing its ability to stimulate entry of cells into ‘S’ phase in readiness for cell division. This is done by standard methodology and involves incubating cells in the presence of a potential mitogen in DMEM supplemented with bromodeoxyuridine. After six hours the cells are fixed and stained with an antibody recognising bromodeoxyuridine. Cells in S phase can be distinguished by their incorporation of bromodeoxyuridine into DNA.

[9] = tested on: L6 cell line; test: survival of L6 cell line lacking FGF receptors; format: cell-based; settings: FGF2 0.1, 1 and 10 ng/ml; Peptide A(d) 100 and 400 μg/ml
Description: FIG. 2d compares the effects of DMEM, FCS, FGF2 at 0.1, 1 and 10 ng/ml, insulin at 0.5 and 5 μg/ml, and Peptide A(d) at 100 and 400 μg/ml.

[10] = tested on: DRG neurons; format: cell-based, rat; settings: 10 ng/ml, 10 days in SATO medium
Description: DRG neurons were taken from embryonic day 16 rates and cultured at a density of-10,000 cells/well of a 96-well plate-over 10 days in SATO medium, unsupplemented or supplemented with 10 ng/ml NGF, 10 ng/ml FGF2 or 800 ng/ml Peptide A(d). An OD of 100% reflects the baseline cell survival n the absence of any supplement in the medium.

[11] = tested on: Oligodendrocyte progenitors (O4 positive); format: cell-based, rat; settings: six days in culture, medium supplemented with insulin
Text: Oligodendrocyte progenitors (O4 positive) are purified from postnatal day 4 rat cerebral cortex. First a trypsinised preparation of cortical cells is dissociated to single cell suspension and pre-plated to remove unwanted adherent cells such as microglia and macrophages. Oligodendrocyte progenitors express the O4 antigen, and can be purified by panning on petri-dishes coated with anti O4 antibodies. Unbound cells are removed by gentle washing, then O4 positive cells are removed by triturating them off the plate with DMEM containing 1% FCS, through a flame-polished pasteur pipette. O4 positive cells are plated on polyornithine-coated glass coverslips at a density of 500,000 cells per well in minimal growth medium containing insulin or the peptide Ac-DRVEPYSSTA[lys]2[lys] i.e. [{Ac-DRVEPYSSTA}2-K]2-K-OH, Peptide A(d), for six days, before being fixed and stained with the anti O4 antibody. Viable O4 positive cells are counted for each condition

[12] = insulin 0.5 pg/ml, FGF2 0.1 ng/ml, Peptide A(d) 10 ng/ml

Row | Substance | stimulation of neurite outgrowth (in words) [1] | peptide concentration giving maximal effects in neurite outgrowth assay [1] | survival of NIH3T3 cells in serum-free conditions (in words) [2] | also measured
1 | Ac-ARSEPYSSTA-amide (Ac-ARSEPYSSTA-NH2) | do not |  |  | 
2 | Ac-ARVEPYSSTA-amide (Ac-ARVEPYSSTA-NH2) | do not |  |  | 
3 | Ac-PYSSTA-NH2 | unable to stimulate neurite outgrowth |  |  | effect on NCAM-stimulated neurite outgrowth ([1]; NCAM-stimulated, low peptide concentrations): able to inhibit NCAM-stimulated neurite outgrowth
4 | Ac-SIDRVEPYSSTAQ-amide (Ac-SIDRVEPYSSTAQ-NH2) [synthetic 13 amino acid peptide derived from the first fibronectin type III domain of NCAM] | dose-dependent increase in neurite outgrowth |  |  | concentration at which neurite length equalled that stimulated by NCAM [1]: 100 µM
5 | Acetyl-DAVEPYSSTA-amide (Ac-DAVEPYSSTA-NH2) [Peptide F] | retain the full ability to stimulate neurite outgrowth |  |  | 
6 | Acetyl-DRSEPYSSTA-amide (Ac-DRSEPYSSTA-NH2) [Peptide E] | retain the full ability to stimulate neurite outgrowth | 50-100 μg/ml and 50-100 μM |  | 
7 | Acetyl-DRVE-amide (Ac-DRVE-NH2) [Peptide B] | could stimulate the response | 75 μg/ml and 150 μM | able to stimulate cell survival | 
8 | Acetyl-DRVEPYSSTA-amide (Ac-DRVEPYSSTA-NH2) [Peptide A] | full activity was retained | 100-200 μg/ml and 100-200 μM |  | effect on neurite outgrowth stimulated by FGF2 ([1]; peptide at low concentration (25 μM), listed as Ac-DRVEPYSSTA-amide): inhibits neurite outgrowth stimulated by FGF2; neurite extension in response to the peptide [3]: unable to extend neurites; also recorded: not able to extend neurites
9 | Acetyl-EGME-amide [Peptide C] | stimulates neurite outgrowth to the same extent as Ac-DRVE-amide | 38 μg/ml and 75 μM | able to stimulate cell survival | 
10 | Acetyl-EGMEGM-amide (Ac-EGMEGM-NH2) [Peptide D] | equally active | 100 µM |  | 
11 | FGF2: fibroblast growth factor (FGF2) | approximately doubles; also recorded: stimulates neurite outgrowth in this assay with a biphasic dose-response curve |  | stimulate dose-dependent survival | cell survival / morphology ([4]; FGF2 1 and 10 ng/ml): reduced in number, and appear apoptotic; cell survival / morphology [4, 12]: stimulate cell survival; MAP kinase activation ([5]; FGF2 0.1 ng/ml): did not; also recorded: do not; MAP kinase activation ([5]; FGF2 1 or 10 ng/ml): resulted in MAP kinase activation; also recorded: stimulate MAP kinase activation; effect on cells plated at low density ([6]; 5,500 cells per well, 10 ng/ml FGF2): stimulates apoptosis; cells remaining compared with the peptide [7]: far fewer cells remaining; mitogenicity (entry into S phase) ([8]; FGF2 0.1 ng/ml): unable to stimulate entry into S phase; mitogenicity (entry into S phase) ([8]; FGF2 10 ng/ml): mitogenicity of 10 ng/ml FGF2 can be seen; survival of NIH3T3 cells ([2]; FGF2 1 ng/ml): ineffective; survival of NIH3T3 cells ([2]; FGF2 10 ng/ml, three days): stimulates apoptosis; survival of L6 cell line [9]: unable to stimulate the survival; increase in DRG neuron survival over unsupplemented baseline [10]: 73%
12 | NGF: Nerve growth factor (NGF) | approximately doubles |  |  | increase in DRG neuron survival over unsupplemented baseline [10]: 121%
13 | [{Ac-ADTRSVSEYP}2-K]2-K-OH (also: branched lysine tetramer: four chains on [K]2-K core, core C-terminus free acid (-OH)) [Ac-ADTRSVSEYP [lys]2[lys], 'scrambled' version of Peptide A(d)] |  |  | ineffective | 
14 | [{Ac-ARSEPYSSTA}2-K]2-K-OH (also: branched lysine tetramer: four chains on [K]2-K core, core C-terminus free acid (-OH)) [Ac-ARSEPYSSTA [lys]2[lys], "mutated" multimeric peptide] |  |  | stimulated cell survival, though not as potently as the parent peptide | 
15 | insulin: known survival factor |  |  | stimulate dose-dependent survival | cell survival / morphology [4, 12]: stimulate cell survival; MAP kinase activation ([5]; insulin 5 μg/ml): showed a small activation; also recorded: do not; cell proliferation ([6]; 11,000 cells per well, FGF2 10 ng/ml): stimulates cell proliferation; cells originally plated that survive [11]: 25%
16 | soluble NCAM: soluble NCAM (Neuronal Cell Adhesion Molecule) | approximately doubles |  |  | 
